# From patent US20190002429A1, “Derivatives of Xanthone Compounds” (Agency for Science, Technology and Research, priority 2011, published 2019)
# Where two headings read alike, the source gives them in different places.
# How the values were obtained:
# [1] = system: MRSA DM21455; experiment: MIC against MRSA DM21455; type: cell-based, Staphylococcus aureus; conditions: for MIC: Staphylococcus aureus; for Minimum inhibition concentration (MIC): MRSA DM21455, Source: Eye
# [2] = system: MRSA DM09808R; experiment: MIC against MRSA DM09808R; type: cell-based, Staphylococcus aureus; conditions: for MIC: Staphylococcus aureus
# [3] = system: MRSA DM21595; experiment: MIC against MRSA DM21595; type: cell-based, Staphylococcus aureus; conditions: Staphylococcus aureus
# [4] = system: MRSA DR42412; experiment: MIC against MRSA DR42412; type: cell-based, Staphylococcus aureus; conditions: Staphylococcus aureus
# [5] = system: Staphylococcus aureus ATCC 700699 (VISA); experiment: MIC against S. aureus ATCC 700699 (MRSA-700699, VISA); type: cell-based; conditions: for MIC: Staphylococcus aureus
# [6] = system: Enterococcus faecalis ATCC 51299 VRE; experiment: MIC against Enterococcus faecalis ATCC 51299 VRE; type: cell-based; conditions: E. faecalis ATCC 51299 VRE; no unit in table (Example 10 MICs in μg/ml)
# [7] = system: Enterococcus faecalis 11: DS6527 (VRE 208/11); experiment: MIC against Enterococcus faecalis DS6527 (VRE 208/11); type: cell-based; conditions: E. faecalis DS6527 (VRE 208/11); no unit in table (Example 10 MICs in μg/ml)
# [8] = system: Enterococcus faecalis 11: DU9345 VRE; experiment: MIC against Enterococcus faecalis DU9345 VRE; type: cell-based; conditions: E. faecalis DU9345 VRE; no unit in table (Example 10 MICs in μg/ml)
# [9] = system: Staphylococcus aureus 10: DB6506 (MRSA04/10) (VISA); experiment: MIC against S. aureus DB6506 (VISA); type: cell-based; conditions: no unit in table (Example 10 MICs in μg/ml)
# [10] = system: MRSA DM21455; experiment: Drug resistance test, 20 serial passages; type: cell-based, Staphylococcus aureus; conditions: MRSA DM21455, FIG. 7
# [11] = system: MRSA; experiment: MIC99 against MRSA (Table 2-1); type: cell-based, Staphylococcus aureus
# [12] = system: S. aureus; experiment: MIC99 against S. aureus (Table 2-1); type: cell-based, Staphylococcus aureus
# [13] = system: Staphylococcus aureus ATCC29213; experiment: MIC against S. aureus ATCC29213; type: cell-based; conditions: for MIC: Table 5
# [14] = system: Mycobacterium tuberculosis
# [15] = system: red blood cell; experiment: Hemolytic activity / in vitro toxicity (HC50); conditions: for HC50: Table 2-1, in vitro toxicity; for Hemolytic concentration, HC50: Table 10
# [16] = system: S. aureus DM4001; experiment: SYTOX green membrane permeabilization assay, S. aureus; conditions: 10 μM; for SYTOX green staining of bacteria (fluorescence microscopy): FIG. 14; for Membrane permeabilization (SYTOX green fluorescence emission): fluorescence spectroscopy
# Experimental: S. aureus DM4001 was harvested at early exponential phase and suspended in 40 mM PBS until OD620 of 0.09 was obtained. Then, the bacteria suspension was incubated with 3 μM of SYTOX Green in dark. The mixture was monitored in a stirring cuvette at an excitation wavelength of 504 nm and at an emission wavelength of 523 nm until the fluorescence was stable. Then, 10 μM of AM compounds were added and the changed of fluorescence emissions were monitored.
# [17] = system: Clinical Staphylococcus aureus DM4001; experiment: MIC against clinical S. aureus DM4001; type: cell-based; design: MIC: unit not given here; conditions: Clinical S. aureus DM4001, Source: Eye; for MIC: Table 5
# [18] = system: Bacillus cereus ATCC11778; experiment: MIC against Bacillus cereus ATCC11778; type: cell-based; conditions: for MIC: Table 5
# [19] = system: Pseudomonas aeruginosa ATCC27853; experiment: MIC against Pseudomonas aeruginosa ATCC27853; type: cell-based
# [20] = system: Clinical Staphylococcus aureus DM4001; experiment: Cytoplasmic membrane depolarization (DiSC3 dye); type: cell-based; conditions: DiSC3 fluorescence; AM-016 at 12.5 ug/mL
# Experimental: Membrane potential-sensitive dye 3,3′-dipropylthiadicarbocyanine iodide (DiSC3) was used to determine the cytoplasmic membrane depolarization activity of AM-016. An overnight culture of clinical Staphylococcus aureus DM4001(source: Eye) was allowed to grow in Muller-Hinton broth (MHB) to OD620=0.3-0.4. Then, the bacteria was collected by centrifugation at 2800 r.p.m at 37° C. for 30 minutes and washed with 5 mM HEPES buffer at pH7. […] The cell suspension was then incubated with 0.1M KCl and 0.4 μM DiSC3 at 37° C. for 30 minutes. Dye uptake was monitored by fluorospectrometry (Photon Technology International (PTI) Photomultiplier Detection Systems, model 814) in a stirred cuvette until the fluorescence signal was stable. The desired concentration of AM-016 was added and the fluorescence was monitored at an excitation wavelength of 622 nm and at an emission wavelength of 670 nm. A blank with dye in the absence of bacteria with same concentration of AM-016 was used as a control.
# [21] = system: Gram-positive bacteria; experiment: Antimicrobial activity against Gram-positive bacteria (statement); type: cell-based; conditions: at 50 ug/ml
# [22] = system: red blood cell
# [23] = system: Klebsiella pneumoniae ATCC10031; experiment: MIC against Klebsiella pneumoniae ATCC10031; type: cell-based
# [24] = type: physicochemical; conditions: pH 7
# Experimental: The solvent was added stepwise until the compound was dissolved completely. Then, the stock solution was diluted to series of diluents and the absorbance of each diluent was determined.
# [25] = pH value in different media; type: physicochemical
# Excerpt: The pH values were obtained using an electronic pH meter.
# [26] = system: Mycobacterium tuberculosis; experiment: microbe, parasite or virus in culture; conditions: read-out: MIC100
compound,measurement,setting,value
"CCCCCCCCCC(=O)N[C@@H](Cc1c[nH]c2ccccc12)C(=O)N[C@H](CC(N)=O)C(=O)N[C@@H](CC(=O)O)C(=O)N[C@@H]1C(=O)NCC(=O)N[C@@H](CCCN)C(=O)N[C@@H](CC(=O)O)C(=O)N[C@H](C)C(=O)N[C@@H](CC(=O)O)C(=O)NCC(=O)N[C@H](CO)C(=O)N[C@@H]([C@H](C)CC(=O)O)C(=O)N[C@@H](CC(=O)c2ccccc2N)C(=O)O[C@@H]1C [Daptomycin, reference compound]",MIC,"[1]; MRSA-21455 (Eye), Example 10, Mueller Hinton broth dilution, read-out: MIC",0.78 µg/mL
same,MIC,"[2]; MRSA-09808R (Eye), Example 10, Mueller Hinton broth dilution, read-out: MIC",0.195 µg/mL
same,MIC,"[3]; MRSA-21595 (Wound), Example 10, Mueller Hinton broth dilution, read-out: MIC",0.395 µg/mL
same,MIC,"[4]; MRSA-42412 (Sputum), Example 10, Mueller Hinton broth dilution, read-out: MIC",0.195 µg/mL
same,MIC,"[5]; MRSA-700699, Example 10, Mueller Hinton broth dilution, read-out: MIC",0.78 µg/mL
"CN[C@H](CC(C)C)C(=O)N[C@H]1C(=O)N[C@@H](CC(N)=O)C(=O)N[C@H]2C(=O)N[C@H]3C(=O)N[C@H](C(=O)N[C@H](C(=O)O)c4cc(O)cc(O)c4-c4cc3ccc4O)[C@H](O)c3ccc(c(Cl)c3)Oc3cc2cc(c3O[C@@H]2O[C@H](CO)[C@@H](O)[C@H](O)[C@H]2O[C@H]2C[C@](C)(N)[C@H](O)[C@H](C)O2)Oc2ccc(cc2Cl)[C@H]1O [Vancomycin, reference compound]",MIC,[1]; MRSA,0.78 µg/mL
same,MIC,[2]; MRSA,0.395 µg/mL
same,MIC,[3]; MRSA,0.78 µg/mL
same,MIC,[4]; MRSA,0.78 µg/mL
same,Minimum inhibitory concentration,"[5]; S. aureus ATCC 700699 (VISA), no unit in table (Example 10 MICs in μg/ml)",6.25
same,MIC,[5],6.25 µg/mL
same,Minimum inhibitory concentration,[6],50
same,Minimum inhibitory concentration,[7],Above 100
same,Minimum inhibitory concentration,[8],1.56
same,Minimum inhibitory concentration,[9],1.56
same,Development of drug resistance,[10],develops drug resistance more quickly
COc1c(OCCCCN2CCOCC2)cc2oc3cc(OCCCCN4CCOCC4)c(CC=C(C)C)c(O)c3c(=O)c2c1CC=C(C)C [AM-009],MIC99 MRSA,[11],>200 µg/mL
same,MIC99 S. aureus,[12],>200 µg/mL
same,Minimum inhibition concentration (MIC),[1],>25 µg/mL
same,Minimum inhibition concentration (MIC),[13],>25 µg/mL
same,MIC100,[14],8 µM
same,MIC100,[14]; value in brackets,5.54 µg/mL
same,HC50,[15],>200 µg/mL
same,"Hemolytic concentration, HC50",[15],>1000 µg/mL
same,SYTOX green staining of bacteria (fluorescence microscopy),[16],no significant staining
same,Membrane permeabilization (SYTOX green fluorescence emission),[16],not able to trigger the membrane permeabilization
COc1c(OCC(=O)O)cc2oc3cc(O)c(CC=C(C)C)c(O)c3c(=O)c2c1CC=C(C)C [AM-072],Minimum inhibition concentration (MIC),[1],6.25 µg/mL
same,Minimum inhibition concentration (MIC),[17],6.25 µg/mL
same,MIC,[17],13.34
same,Minimum inhibition concentration (MIC),[13],6.25 µg/mL
same,MIC,[13],13.34 µM
same,Minimum inhibition concentration (MIC),[18],6.25 µg/mL
same,MIC,[18],13.34 µM
same,MIC100,[14],250 µM
COc1c(OCCCCBr)cc2oc3cc(OCCCCBr)c(CC=C(C)C)c(O)c3c(=O)c2c1CC=C(C)C [AM-005],MIC99 MRSA,[11],>200 µg/mL
same,MIC99 S. aureus,[12],>200 µg/mL
same,Minimum inhibition concentration (MIC),[1],>50 µg/mL
same,Minimum inhibition concentration (MIC),"[2]; MRSA DM09808R, Source: Eye",>50 µg/mL
same,Minimum inhibition concentration (MIC),[13],>50 µg/mL
same,Minimum inhibition concentration (MIC),[19],>50 µg/mL
same,Cytoplasmic membrane depolarization,[20],does not depolarize the membrane
same,Activity against Gram-positive bacteria,[21],did not show activity
same,HC50,[22],>200 µg/mL
same,SYTOX green staining of bacteria (fluorescence microscopy),[16],no significant staining
same,Membrane permeabilization (SYTOX green fluorescence emission),[16],not able to trigger the membrane permeabilization
COC(=O)C(CCCNC(=N)N)NC(=O)COc1cc2oc3cc(OCC(=O)NC(CCCNC(=N)N)C(=O)OC)c(OC)c(CC=C(C)C)c3c(=O)c2c(O)c1CC=C(C)C (stereo not drawn) [AM-052],MIC99,"[1]; Methicillin-resistant S. aureus DM21455, Source: Eye",1.56 µg/mL
same,MIC99,[2]; Methicillin-resistant S. aureus DM09808R,3.125 µg/mL
same,MIC99,[13],6.25 µg/mL
same,MIC99,[18],3.125 µg/mL
same,MIC99,[19],12.5 µg/mL
same,MIC99,[23],6.25 µg/mL
same,Solubility,[24],not soluble
same,pH,"[25]; Saline, 50 μg/ml compound",5.33 ± 0.05
same,pH,"[25]; Saline, 100 μg/ml compound",5.33 ± 0.01
same,pH,"[25]; Water, 50 μg/ml compound",6.52 ± 0.29
same,pH,"[25]; Water, 100 μg/ml compound",7.66 ± 0.33
same,HC50,[22],238 µg/mL
COc1c(O)cc2oc3cc(OCC(=O)O)c(CC=C(C)C)c(O)c3c(=O)c2c1CC=C(C)C [AM-071],Minimum inhibition concentration (MIC),[1],25 µg/mL
same,Minimum inhibition concentration (MIC),[17],25 µg/mL
same,MIC,[17],53.36
same,Minimum inhibition concentration (MIC),[13],12.5 µg/mL
same,MIC,[13],26.68 µM
same,Minimum inhibition concentration (MIC),[18],6.25 µg/mL
same,MIC,[18],13.34 µM
same,MIC100,[14],250 µM
same,"Hemolytic concentration, HC50",[15],37.5 µg/mL
"COc1c(O)cc2oc3cc(O)c(CC=C(C)C)c(O)c3c(=O)c2c1CC=C(C)C [AM-000, alpha-mangostin, reference compound]",MIC99 MRSA,[11],1.56 µg/mL
same,MIC99 S. aureus,[12],1.56 µg/mL
same,HC50,[15],9 µg/mL
same,"Hemolytic concentration, HC50",[15],6.5 µg/mL
CCN(CC)CCCCCCCCCCCCOc1cc2oc3cc(OCCCCCCCCCCCCN(CC)CC)c(OC)c(CC=C(C)C)c3c(=O)c2c(O)c1CC=C(C)C [AM-045],SYTOX green staining of bacteria (fluorescence microscopy),[16],no significant staining
same,Membrane permeabilization (SYTOX green fluorescence emission),[16],not able to trigger the membrane permeabilization
CC[C@@H](CO)NCCN[C@@H](CC)CO [Ethambutol],MIC,[26],20 µM
"CC(C)=CCc1c(O)cc2oc3cc(O)c(O)c(CC=C(C)C)c3c(=O)c2c1O [AM-013, Gamma-mangostin, reference compound]",MIC100,[14],125 µM
same,MIC100,[14]; value in brackets,49.55 µg/mL
CCN(CC)CCCCCCCCOc1cc2oc3cc(OCCCCCCCCN(CC)CC)c(OC)c(CC=C(C)C)c3c(=O)c2c(O)c1CC=C(C)C [AM-043],Membrane permeabilization (SYTOX green fluorescence emission),[16],weaker membrane permeabilization effect
CCN(CC)CCCCCCCCCCOc1cc2oc3cc(OCCCCCCCCCCN(CC)CC)c(OC)c(CC=C(C)C)c3c(=O)c2c(O)c1CC=C(C)C [AM-044],SYTOX green staining of bacteria (fluorescence microscopy),[16],no significant staining
same,Membrane permeabilization (SYTOX green fluorescence emission),[16],not able to trigger the membrane permeabilization
